Reference: US20240082221A1, “COMPOSITIONS AND METHODS FOR THE IDENTIFICATION OF COMPOUNDS THAT PROTECT AGAINST LIPOFUSCIN CYTOTOXICITY” (priority 2021, published 2024)

How the values were obtained:
IRE1α = assay: qPCR of spliced XBP1 (XBP1s) as readout of IRE1α activity in ARPE-19; format: cell-based, Human; conditions: ARPE-19, qPCR
From the text: (§1) RNA isolation and quantitative PCR. Total RNA was extracted from cultured cells or mouse eye RPE layer using the RNeasy Mini kit (QIAGEN). The total RNA was digested with deoxyribonuclease I to prevent amplification of genomic DNA. The total RNA then was reversed transcribed using High-Capacity cDNA Reverse Transcription Kit (ThermoFisher Scientific, cat.no. 4368814) and analyzed gene expression using SYBR Green Master Mix (ThermoFisher Scientific, cat.no. 4472908) in an Applied Biosystems StepOne real time PCR machine. GAPDH was used as a reference gene. […] After genes were amplified by real time PCR, some of the PCR products were separated by 2.5% agarose gel.

XBP1s [1] = assay: qPCR of XBP1 splicing in hfRPE; format: cell-based, Human
From the text: as §1

[2] = test system: unfolded protein response (UPR) pathway; assay: RNAseq / Ingenuity Pathway Analysis of cells with dark LF cytotoxicity; format: cell-based, Human; conditions: cells with dark LF cytotoxicity vs cells rescued by treatment
Protocol: RNAseq. Cultured ARPE19 cells were treated with or without 15 uM A2E for 24 hours, then cells were harvested and total RNA extracted. […]. RNAseq profiles were analyzed further with Ingenuity Pathway Analysis (IPA, Qiagen).
To investigate the cellular processes leading to necroptosis, Ingenuity Pathway Analysis (IPA) was used to compare the transcriptomes of cells suffering of dark LF cytotoxicity with cells rescued by Nec7 treatment. […] The UPR is a conserved transcriptional response to the aberrant accumulation of misfolded proteins or lipids in the endoplasmic reticulum. UPR is elicited by three ER-resident sensors: PERK, IRE1α and […]. […] To evaluate the impact of UPR downregulation, the list of UPR transcripts inhibited by Nec7 was extracted and a new IPA analysis was performed for the downstream consequences (FIG. 5D).

XBP1s [3] = assay: Intravitreal treatment of DKO mice, XBP1s immunostaining of RPE flat mounts; format: in vivo, ABCA4−/− RDH8−/− double knock-out mice (DKO); conditions: 26 month old DKO mice, intraocular, a week later, vs mock treated eyes
Protocol: Animals. Pigmented ABCA4^−/− RDH8^−/− double knock-out mice (DKO), free of rd8 mutation, were purchased from Jackson laboratories and every 10 generations were in house backcrossed to the C57BL6J control strain, to prevent genetic drifts. Genotyping was performed at Transnetyx (Memphis, TN). Only mice with ABCA4, RDH8, RPE65-Leu450 but no crb1 mutations (retinal degeneration slow) were maintained in the colony. Controls C57BL/6J (Rpe65-Leu450, crb1negative) were also Jackson's lab. All mice were housed at Weill Cornell Medicine's animal facility under a 12 h light (˜10 lux)/12 h dark cycle environment or under complete darkness. Experimental manipulations in the dark were done under dim red light transmitted through a Kodak No. 1 safelight filter (transmittance >560 nm). No retinal degeneration or necroptosis markers were appreciably detected in 20 months or older C57BL6/N (Rpe65-Met450, crb1 positive) obtained from the NAI/NIH. All animal procedures and experiments were approved by the Animal Care and Use Committee of Weill Cornell Medical College in agreement with the guidelines established by the NIH Office of Laboratory Animal Welfare and the Association of Research for Vision and Ophthalmology (ARVO) statement for the use of animals in ophthalmic research. […]
Pharmacological treatment of mice. […] The exact volume of Mock reagent or Kira6 was determined by 10 μl Hamilton syringe. […]

[4] = test system: EDN2, FGF2, GFAP, SERP, VEGF, CXCL15, XBP1s, SCAND1, CEBPA, HMGA; assay: Intravitreal treatment of DKO mice, qPCR of retinal degeneration markers in whole retina; format: in vivo, ABCA4−/− RDH8−/− double knock-out mice (DKO); conditions: total RNA from whole retina, vs control injected eyes
Protocol: Pharmacological treatment of mice. KIRA6 (Cayman Chemical, item no. 19151) was injected intravitreously with 1 μL total volume. KIRA6 concentration is 20 μg/ml. The control eye received an equal amount of mock reagent (DMSO). Mouse was weighed and anesthetized with Ketamine cocktail at 10 mg/kg, then mouse eyes were dilated with Tropicamide. The exact volume of Mock reagent or Kira6 was determined by 10 μl Hamilton syringe. Under surgery microscope, mouse eye was placed in the center of the field, 34 gauge of needle was inserted into mouse eye at the Ora serrata and towards ONH. Once the needle was inside the mouse eye, 2 μl of the contents in the Hamilton syringe was injected. The needle was slowly withdrawn to prevent the reflux of the solution. Nec7 (2 μL of 33 mM stock in DMSO) was intravitreally injected in the left eye and an equal amount of vehicle (DMSO) was administered to the right eye. After intravitreal injection, the mouse was placed in a warm place until it completely woke up. […]
RNA isolation and quantitative PCR. […] The total RNA then was reversed transcribed using High-Capacity cDNA Reverse Transcription Kit (ThermoFisher Scientific, cat.no. 4368814) and analyzed gene expression using SYBR Green Master Mix (ThermoFisher Scientific, cat.no. 4472908) in an Applied Biosystems StepOne real time PCR machine. […]

SMILES	effect on LF-induced XBP1 splicing (XBP1s, IRE1α activity) (IRE1α)	effect on LF-induced XBP1 splicing in hfRPE (XBP1s [1])	transcriptome pathway variation induced by treatment (IPA) [2]	XBP1s staining of whole RPE flat mounts (XBP1s [3])	mRNA levels of markers for retinal degeneration, inflammation/angiogenesis, ER-stress and necroptosis [4]
N=C1S/C(=C\c2cn[nH]c2-c2ccc(F)cc2)C(=O)N1c1nccs1 [Nec7, Necrostatin 7]	completely abrogated	prevention	inhibition of the unfolded protein response (UPR)		
CC(C)(C)c1nc(-c2ccc(NC(=O)Nc3cccc(C(F)(F)F)c3)c3ccccc23)c2c(N)nccn12 [KIRA6]				decreased from the center to the periphery	generalized reduction in all the tested markers
